Source: ChEMBL document CHEMBL3885881, “DrugMatrix”

Organism: Rattus norvegicus
Test: DrugMatrix - Regimen: Daily Repeat
Assay type: toxicity, organism-based, Sprague-Dawley
Set-up: regimen Daily Repeat, gender Male, age 6-8 weeks
Conditions: in vivo, po, route oral GAVAGE, vehicle .5 % CMC; for ABSOLUTE BASOPHIL / ABSOLUTE EOSINOPHIL / ABSOLUTE LYMPHOCYTE / ABSOLUTE MONOCYTE / ABSOLUTE SEGMENTED NEUTROPHIL / BASOPHIL / EOSINOPHIL / ERYTHROCYTE COUNT / HEMATOCRIT / HEMOGLOBIN / LEUKOCYTE COUNT / LYMPHOCYTE / MEAN CORPUSCULAR HEMOGLOBIN / MEAN CORPUSCULAR HEMOGLOBIN CONCENTRATION / MEAN CORPUSCULAR VOLUME / MONOCYTE / NEUTROPHIL / NUCLEATED RED BLOOD CELLS / PLATELET COUNT: tissue Blood; for ALANINE AMINOTRANSFERASE / ALBUMIN / ALKALINE PHOSPHATASE / ASPARTATE AMINOTRANSFERASE / BLOOD UREA NITROGEN / CARBON DIOXIDE / CHLORIDE / CHOLESTEROL / CREATINE PHOSPHOKINASE / CREATININE / GLUCOSE / LACTATE DEHYDROGENASE / LIPASE / PHOSPHORUS / POTASSIUM / SODIUM / TOTAL BILIRUBIN / TOTAL PROTEIN / URIC ACID: tissue Plasma
[1] = 30 mg/kg, 72 h, dose level Low, time 3 day
[2] = 30 mg/kg, 120 h, dose level Low, time 5 day
[3] = 600 mg/kg, 72 h, dose level High, time 3 day
[4] = 600 mg/kg, 120 h, dose level High, time 5 day

For `Cc1c(OCC(F)(F)F)ccnc1C[S+]([O-])c1nc2ccccc2[nH]1` (configuration not stated) [LANSOPRAZOLE], the “ABSOLUTE BASOPHIL” value [1] was 0 CELLS/uL, the “ABSOLUTE EOSINOPHIL” value [1] was 38 CELLS/uL and the “ABSOLUTE LYMPHOCYTE” value [1] was 11302.33 CELLS/uL. For the same compound, the “ABSOLUTE MONOCYTE” value [1] was 38 CELLS/uL, the “ABSOLUTE SEGMENTED NEUTROPHIL” value [1] was 588.33 CELLS/uL and the BASOPHIL [1] was 0%. The EOSINOPHIL [1] was 0.33%, the “ERYTHROCYTE COUNT” value [1] was 5.49 x10E6/uL and the HEMATOCRIT [1] was 34.33%. The HEMOGLOBIN [1] was 12.9 G/DL, the “LEUKOCYTE COUNT” value [1] was 11.97 x10E3/uL and the LYMPHOCYTE [1] was 94.33%. For the same compound, the “MEAN CORPUSCULAR HEMOGLOBIN” value [1] was 23.47 pg, the “MEAN CORPUSCULAR HEMOGLOBIN CONCENTRATION” value [1] was 37.53 G/DL and the “MEAN CORPUSCULAR VOLUME” value [1] was 62.53 fL. The MONOCYTE [1] was 0.33%, the NEUTROPHIL [1] was 5% and the “NUCLEATED RED BLOOD CELLS” value [1] was 0 /100WBC. For the same compound, the “PLATELET COUNT” value [1] was 1374 x10E3/uL, the “ALANINE AMINOTRANSFERASE” value [1] was 48.67 u/L and the ALBUMIN [1] was 4.03 G/DL. The “ALKALINE PHOSPHATASE” value [1] was 333 u/L, the “ASPARTATE AMINOTRANSFERASE” value [1] was 84.33 u/L and the “BLOOD UREA NITROGEN” value [1] was 13.67 mg/dL. The “CARBON DIOXIDE” value [1] was 25.33 mmol/L, the CHLORIDE [1] was 103 MEQ/L and the CHOLESTEROL [1] was 81.33 mg/dL. For the same compound, the “CREATINE PHOSPHOKINASE” value [1] was 302.33 u/L, the CREATININE [1] was 0.28 mg/dL and the GLUCOSE [1] was 162 mg/dL. For the same compound, the “LACTATE DEHYDROGENASE” value [1] was 455.33 u/L, the LIPASE [1] was 12 u/L and the PHOSPHORUS [1] was 14.17 mg/dL. For the same compound, the POTASSIUM [1] was 6.71 MEQ/L, the SODIUM [1] was 146.4 MEQ/L and the “TOTAL BILIRUBIN” value [1] was 0.17 mg/dL. For the same compound, the “TOTAL PROTEIN” value [1] was 5.57 G/DL, the “URIC ACID” value [1] was 1.93 mg/dL and the “ABSOLUTE BASOPHIL” value [2] was 0 CELLS/uL. For the same compound, the “ABSOLUTE EOSINOPHIL” value [2] was 0 CELLS/uL, the “ABSOLUTE LYMPHOCYTE” value [2] was 12566 CELLS/uL and the “ABSOLUTE MONOCYTE” value [2] was 465.33 CELLS/uL. For the same compound, the “ABSOLUTE SEGMENTED NEUTROPHIL” value [2] was 1302 CELLS/uL, the BASOPHIL [2] was 0% and the EOSINOPHIL [2] was 0%. For the same compound, the “ERYTHROCYTE COUNT” value [2] was 5.54 x10E6/uL, the HEMATOCRIT [2] was 36.83% and the HEMOGLOBIN [2] was 13.67 G/DL. For the same compound, the “LEUKOCYTE COUNT” value [2] was 14.33 x10E3/uL, the LYMPHOCYTE [2] was 87.67% and the “MEAN CORPUSCULAR HEMOGLOBIN” value [2] was 24.73 pg. The “MEAN CORPUSCULAR HEMOGLOBIN CONCENTRATION” value [2] was 37.17 G/DL, the “MEAN CORPUSCULAR VOLUME” value [2] was 66.5 fL and the MONOCYTE [2] was 3.33%. For the same compound, the NEUTROPHIL [2] was 9%, the “NUCLEATED RED BLOOD CELLS” value [2] was 0 /100WBC and the “PLATELET COUNT” value [2] was 1375.67 x10E3/uL. For the same compound, the “ALANINE AMINOTRANSFERASE” value [2] was 52.33 u/L, the ALBUMIN [2] was 4.3 G/DL and the “ALKALINE PHOSPHATASE” value [2] was 288.67 u/L. The “ASPARTATE AMINOTRANSFERASE” value [2] was 81 u/L, the “BLOOD UREA NITROGEN” value [2] was 16.33 mg/dL and the “CARBON DIOXIDE” value [2] was 22.33 mmol/L. The CHLORIDE [2] was 103.67 MEQ/L, the CHOLESTEROL [2] was 82 mg/dL and the “CREATINE PHOSPHOKINASE” value [2] was 222.67 u/L. The CREATININE [2] was 0.33 mg/dL, the GLUCOSE [2] was 147 mg/dL and the “LACTATE DEHYDROGENASE” value [2] was 157.67 u/L. The LIPASE [2] was 13 u/L, the PHOSPHORUS [2] was 12.33 mg/dL and the POTASSIUM [2] was 7.1 MEQ/L. The SODIUM [2] was 147.6 MEQ/L, the “TOTAL BILIRUBIN” value [2] was 0.2 mg/dL and the “TOTAL PROTEIN” value [2] was 6.07 G/DL. For the same compound, the “URIC ACID” value [2] was 1.6 mg/dL, the “ABSOLUTE BASOPHIL” value [3] was 0 CELLS/uL and the “ABSOLUTE EOSINOPHIL” value [3] was 0 CELLS/uL. The “ABSOLUTE LYMPHOCYTE” value [3] was 13053.67 CELLS/uL, the “ABSOLUTE MONOCYTE” value [3] was 222.67 CELLS/uL and the “ABSOLUTE SEGMENTED NEUTROPHIL” value [3] was 690.33 CELLS/uL. The BASOPHIL [3] was 0%, the EOSINOPHIL [3] was 0% and the “ERYTHROCYTE COUNT” value [3] was 5.81 x10E6/uL. For the same compound, the HEMATOCRIT [3] was 37.37%, the HEMOGLOBIN [3] was 13.57 G/DL and the “LEUKOCYTE COUNT” value [3] was 13.97 x10E3/uL. For the same compound, the LYMPHOCYTE [3] was 93.67%, the “MEAN CORPUSCULAR HEMOGLOBIN” value [3] was 23.33 pg and the “MEAN CORPUSCULAR HEMOGLOBIN CONCENTRATION” value [3] was 36.3 G/DL. The “MEAN CORPUSCULAR VOLUME” value [3] was 64.3 fL, the MONOCYTE [3] was 1.33% and the NEUTROPHIL [3] was 5%. The “NUCLEATED RED BLOOD CELLS” value [3] was 0.33 /100WBC, the “PLATELET COUNT” value [3] was 1408 x10E3/uL and the “ALANINE AMINOTRANSFERASE” value [3] was 39 u/L. The ALBUMIN [3] was 4.1 G/DL, the “ALKALINE PHOSPHATASE” value [3] was 387.33 u/L and the “ASPARTATE AMINOTRANSFERASE” value [3] was 76.67 u/L. The “BLOOD UREA NITROGEN” value [3] was 16.33 mg/dL, the “CARBON DIOXIDE” value [3] was 28 mmol/L and the CHLORIDE [3] was 104.67 MEQ/L. The CHOLESTEROL [3] was 55.33 mg/dL, the “CREATINE PHOSPHOKINASE” value [3] was 222 u/L and the CREATININE [3] was 0.18 mg/dL. For the same compound, the GLUCOSE [3] was 159 mg/dL, the “LACTATE DEHYDROGENASE” value [3] was 91.33 u/L and the LIPASE [3] was 9.67 u/L. The PHOSPHORUS [3] was 12.23 mg/dL, the POTASSIUM [3] was 6.7 MEQ/L and the SODIUM [3] was 147.6 MEQ/L. For the same compound, the “TOTAL BILIRUBIN” value [3] was 0.13 mg/dL, the “TOTAL PROTEIN” value [3] was 5.53 G/DL and the “URIC ACID” value [3] was 1.8 mg/dL. For the same compound, the “ABSOLUTE BASOPHIL” value [4] was 0 CELLS/uL, the “ABSOLUTE EOSINOPHIL” value [4] was 0 CELLS/uL and the “ABSOLUTE LYMPHOCYTE” value [4] was 15467 CELLS/uL. The “ABSOLUTE MONOCYTE” value [4] was 599 CELLS/uL, the “ABSOLUTE SEGMENTED NEUTROPHIL” value [4] was 1467.33 CELLS/uL and the BASOPHIL [4] was 0%. For the same compound, the EOSINOPHIL [4] was 0%, the “ERYTHROCYTE COUNT” value [4] was 5.82 x10E6/uL and the HEMATOCRIT [4] was 35.9%. The HEMOGLOBIN [4] was 13.57 G/DL, the “LEUKOCYTE COUNT” value [4] was 17.53 x10E3/uL and the LYMPHOCYTE [4] was 87.67%. For the same compound, the “MEAN CORPUSCULAR HEMOGLOBIN” value [4] was 23.33 pg, the “MEAN CORPUSCULAR HEMOGLOBIN CONCENTRATION” value [4] was 37.8 G/DL and the “MEAN CORPUSCULAR VOLUME” value [4] was 61.7 fL. The MONOCYTE [4] was 3.33%, the NEUTROPHIL [4] was 9% and the “NUCLEATED RED BLOOD CELLS” value [4] was 0.33 /100WBC. For the same compound, the “PLATELET COUNT” value [4] was 1179.67 x10E3/uL, the “ALANINE AMINOTRANSFERASE” value [4] was 36 u/L and the ALBUMIN [4] was 3.93 G/DL. The “ALKALINE PHOSPHATASE” value [4] was 272.33 u/L, the “ASPARTATE AMINOTRANSFERASE” value [4] was 83.33 u/L and the “BLOOD UREA NITROGEN” value [4] was 16.67 mg/dL. The “CARBON DIOXIDE” value [4] was 28.33 mmol/L, the CHLORIDE [4] was 106 MEQ/L and the CHOLESTEROL [4] was 51.33 mg/dL. For the same compound, the “CREATINE PHOSPHOKINASE” value [4] was 144.33 u/L, the CREATININE [4] was 0.17 mg/dL and the GLUCOSE [4] was 138.67 mg/dL. The “LACTATE DEHYDROGENASE” value [4] was 71 u/L, the LIPASE [4] was 10.67 u/L and the PHOSPHORUS [4] was 10.43 mg/dL. The POTASSIUM [4] was 6.81 MEQ/L, the SODIUM [4] was 148.63 MEQ/L and the “TOTAL BILIRUBIN” value [4] was 0.17 mg/dL. The “TOTAL PROTEIN” value [4] was 5.73 G/DL and the “URIC ACID” value [4] was 1.27 mg/dL.
